The subject of one assay is Jurkat T cells. Kind of assay: Mitochondrial transmembrane potential (ΔΨm) in Jurkat T cells, TMRM flow cytometry with oligomycin (Example 1). As to conditions: relative to negative controls. It is filed as cell-based. The text has this:
Objective. […] Model. The Jurkat T cell model is commonly used to study the potential effects of compounds on T cells in vitro. This cell line allows investigation of stimuli and mechanisms that regulate T cell mitochondrial function and survival. As T cells, Jurkats have a lymphocyte appearance and replicate in culture in suspension. They contain respiring mitochondria and as such response to mitochondrial uncouplers such as niclosamide may be assessed. Uncoupling is identified and quantified by a detecting a drop in the electrochemical gradient across the mitochondrial inner membrane (ΔΨm) that is not associated with a corresponding increase in oxidative phosphorylation. […] Cell culture. Jurkat T cells were purchased from the American Type Culture Collection (Manassas, Va.) and sub-cultured according to instructions from the supplier. Prior to experiments, cells were cultured in RPMI 1640 containing 10% FBS-HI, 50 units penicillin/mL and 50 μg streptomycin/mL, and maintained in log phase prior to experimental setup. […] TMRM has been described as one of the best fluorescent dyes for dynamic and in situ quantitative measurements because it is rapidly and reversibly taken up by live cells and mitochondria. […] Ratios of the fluorescence intensity of each treated sample to the control sample mean were then calculated as a measure of relative decrease in ΔΨm. […]

Another assay deals with TNBS-induced colitis. The assay is described as follows: TNBS colitis in mice, niclosamide suspension administered rectally as enema (Example 9). The class given is in vivo, male Balb/c mice. The source says: Model: Intra-rectal administration of trinitrobenzene sulfonic acid (TNBS) to mice results in colitis. TNBS elicits cell-mediated immune responses and induces transmural inflammation in the gut with morphological and histopathological features similar to those of human inflammatory bowel disease. TNBS induces diffuse colonic inflammation, characterized by increased leukocyte infiltration, edema, and ulceration. It is very well reported that administration of TNBS is associated with predominant activation of Th1-mediated immune response manifested by increased cytokines such as interferon-γ (IFN-γ), tumor necrosis factor-α (TNF-α) and interleukin-17A (IL-17A) as well as dense infiltration of CD4+ T cells. Disease activity in the TNBS model can be determined by loss of body weight, histopathological evaluation of the colon showing evidence of inflammatory damage and evidence of pro-inflammatory cytokines detected in colon tissue. Animals and Treatments: Studies of TNBS colitis were performed in 8- to 12-week-old male Balb/c mice (Jackson Laboratories, stock number 000651). […] Weight changes were recorded daily and tissues were collected for histologic study and RNA analysis at the end of the study. […] Gene expression was calculated using the ΔΔCt algorithm.

Consider `O=C(Nc1ccc([N+](=O)[O-])cc1Cl)c1cc(Cl)ccc1O` [Niclosamide, 5-chloro-N-(2-chloro-4-nitrophenyl)-2-hydroxybenzamide], for which the “change in ΔΨm in Jurkat cells” value with Jurkat T cells (1-500 μM, 60 minutes, oligomycin present, TMRM) is listed as “dose-related decrease”. Besides, the “concentrations of niclosamide that significantly decreased ΔΨm (p<0.05)” value with Jurkat T cells (Jurkat cells) is at least 5 µM. The body weight result in the assay on TNBS-induced colitis (rectal 30 mg/kg on days 1 and 2, TNBS-induced colitis) is “recovery of body weight”. The “colitis score (H&E analysis of colon biopsies)” value in the assay with TNBS-induced colitis (rectal 30 mg/kg on days 1 and 2, compared to vehicle control or TNBS only) is on record as “significantly lower”.

The record behind these values is patent publication US10849867B2, “Methods and compositions for treating conditions associated with an abnormal inflammatory response” (First Wave Bio, Inc., priority 2015, dated 2020).
